# Data as given in patent publication US20070298111A1, “Fine Particle-Containing Composition and Manufacturing Method Therefor” (EISAI R&D MANAGEMENT CO., LTD., priority 2004, published 2007).
# How the values were obtained:
# [1] = pharmacopoeia term; cited from earlier work
# [2] = Solubility of glibenclamide in the presence of both α-CD and SDS; type: physicochemical; conditions: 3 days at room temperature
# Description: To an aqueous solution (4 mL) containing α-CD and SDS was added glibenclamide (20 mg), which was stirred for 3 days at room temperature. This solution was filtered using a Millex-HV filter (Millipore) with a pore size of 0.45 μm, and the glibenclamide concentration in the filtrate was measured by HPLC using a Unison UK-C18 column (Imtakt).
compound,measurement,setting,value
"Cc1cccc(Nc2ccccc2C(=O)O)c1C [mefenamic acid, 2-(2,3-dimethylphenylamino)benzoic acid]",Solubility in water,[1],practically insoluble in water
"COc1ccc(Cl)cc1C(=O)NCCc1ccc(S(=O)(=O)NC(=O)NC2CCCCC2)cc1 [glibenclamide, 4-[2-(5-Chloro-2-methoxybenzoylamino)ethyl](N-cyclohexylcarbamoyl)benzene-sulfonaide]",Solubility of glibenclamide relative to SDS concentration (FIG. 6),[2]; α-CD added,a bending point appeared indicating minimum solubility
same,Solubility of glibenclamide relative to SDS concentration (FIG. 6),[2]; α-CD concentration 0.0 mM,solubility rose as the SDS concentration rose
same,Solubility in water,[1],practically insoluble in water
"CC(=O)S[C@@H]1CC2=CC(=O)CC[C@]2(C)[C@H]2CC[C@@]3(C)[C@@H](CC[C@@]34CCC(=O)O4)[C@H]12 [spironolactone, 7α-acetylsulfanyl-3-oxo-17α-pregn-4-ene-21,17β-carbolactone]",Solubility in water,[1],practically insoluble in water
